Measurements from US20250011311A1, “AMIDO HETEROAROMATIC COMPOUNDS” (AstraZeneca AB, priority 2022, published 2025).

Legend:
[1] = biological target: recombinant 17bHSD4 (M1-N311) (Homo sapiens (Human), UniProt P51659); assay: In Vitro 17bHSD4 Enzyme Assay; assay type: biochemical; details: 40 nM 17bHSD4, 0.125 mM NAD, 15 μM Estradiol, 1.5 h; NADH fluorescence; read-out: 17HSD17b4 Enzyme assay IC50
[2] = biological target: over expressed HSD17β9 in HEK293S cells (Homo sapiens (Human), UniProt Q92781); assay: In Vitro 17bHSD9 Cell Assay; assay type: cell-based; details: HEK293S cells over expressing HSD17β9; retinol to retinal conversion, 18 h, LC-MS/MS; read-out: 17bHSD9 Cell assay IC50
over expressed HSD17β9 in HEK293S cells, sequence (Q92781 whole entry): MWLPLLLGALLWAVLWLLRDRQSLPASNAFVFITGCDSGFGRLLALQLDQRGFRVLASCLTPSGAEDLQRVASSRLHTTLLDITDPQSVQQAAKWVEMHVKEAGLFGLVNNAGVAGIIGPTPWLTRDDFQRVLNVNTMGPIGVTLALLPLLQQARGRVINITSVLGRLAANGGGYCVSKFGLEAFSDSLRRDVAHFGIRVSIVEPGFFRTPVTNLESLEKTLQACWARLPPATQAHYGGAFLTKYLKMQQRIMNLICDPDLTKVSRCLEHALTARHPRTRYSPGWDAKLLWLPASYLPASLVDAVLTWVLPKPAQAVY
Method in brief: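 HEK293S cells overexpressing HSD17β9 were plated at 10K cells/well in DMEM + 10% FBS and cultured 18 h. Retinol-to-retinal conversion in media was quantified by LC-MS/MS (MRM) as retinal/(retinal + retinol). IC50 was fitted after normalisation to DMSO and full inhibition by a reference inhibitor.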

[3] = system: human hepatocytes; assay: Assay A: Metabolic Stability in Human Hepatocytes; assay type: in vitro ADME; details: cryopreserved human hepatocytes, 10^6 viable cells/mL, 1 μM compound, 37° C.
Method in brief: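 Cryopreserved hepatocytes (10^6 viable cells/mL) at 37° C with 1 μM test compound, sampled 0.5–120 min and quenched in MeCN. Parent measured by LC-MS/MS; CLint (μL/min/10^6 cells) from the slope of ln(parent concentration) vs time.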

[4] = biological target: over expressed HSD17β13 in HEK293S cells (Homo sapiens (Human), UniProt Q7Z5P4); assay: In Vitro 17bHSD13 Cell Assay; assay type: cell-based; details: HEK293S cells over expressing HSD17β13; estradiol to estrone conversion, 18 h, LC-MS/MS; read-out: 17bHSD1713 Cell assay IC50
over expressed HSD17β13 in HEK293S cells, sequence (Q7Z5P4 20-300): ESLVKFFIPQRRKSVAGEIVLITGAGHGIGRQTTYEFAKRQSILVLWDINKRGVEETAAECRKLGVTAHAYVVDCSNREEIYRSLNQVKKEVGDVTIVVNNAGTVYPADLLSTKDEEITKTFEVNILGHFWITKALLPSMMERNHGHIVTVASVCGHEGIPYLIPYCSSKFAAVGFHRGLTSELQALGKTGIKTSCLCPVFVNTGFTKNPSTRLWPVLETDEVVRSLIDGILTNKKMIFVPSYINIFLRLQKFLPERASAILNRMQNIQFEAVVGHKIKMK
Method in brief: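 HEK293S cells overexpressing HSD17β13 convert estradiol to estrone; product read by LC-MS/MS (APCI, positive MRM) as AUC ratio estrone/(estrone+estradiol). Effect normalised between DMSO and maximal inhibition by a known inhibitor control; IC50 from curve fit.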

recombinant 17bHSD4 (M1-N311), sequence (P51659 1-311): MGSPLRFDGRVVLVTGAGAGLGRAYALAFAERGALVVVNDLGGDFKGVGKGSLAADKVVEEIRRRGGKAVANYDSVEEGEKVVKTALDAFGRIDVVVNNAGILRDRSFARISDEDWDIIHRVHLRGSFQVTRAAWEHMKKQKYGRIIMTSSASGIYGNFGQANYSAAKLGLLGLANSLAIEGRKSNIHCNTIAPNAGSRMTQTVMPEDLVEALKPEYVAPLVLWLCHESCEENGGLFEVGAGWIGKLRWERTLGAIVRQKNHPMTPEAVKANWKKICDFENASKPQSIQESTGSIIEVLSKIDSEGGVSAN

Row | SMILES | IC50 [1] [µM] | IC50 [2] [µM] | IC50 [4] [µM] | Assay A: Human Heps Met Clint GMean CLint (μl/min/1E6) [3] [μl/min/1E6]
1 | C[C@@H]1CN(C(=O)c2cnc(-c3cc(F)c(F)c(O)c3F)s2)C[C@H](C)O1 [Example 120, ((2R,6S)-2,6-Dimethylmorpholino)(2-(2,4,5-trifluoro-3-hydroxyphenyl)thiazol-5-yl)methanone] | > 50 | > 50 | 0.14 | 13.3
2 | O=C(c1noc(-c2cc(F)c(F)c(O)c2F)n1)N1CCOC2CCCC21 (stereo not shown) [Example 41, (Hexahydrocyclopenta[b][1,4]oxazin-4(4aH)-yl)(5-(2,4,5-trifluoro-3-hydroxyphenyl)-1,2,4-oxadiazol-3-yl)methanone] | > 50 | 49.6 | 0.09 | 5.9
3 | C[C@@H]1CN(C(=O)c2noc(-c3cc(F)c(F)c(O)c3F)n2)[C@H](C)CO1 [Example 50, ((2R,5R)-2,5-Dimethylmorpholino)(5-(2,4,5-trifluoro-3-hydroxyphenyl)-1,2,4-oxadiazol-3-yl)methanone] | > 50 | 39.5 | 0.22 | 4.3
4 | O=C(c1noc(-c2cc(F)c(F)c(O)c2F)n1)N1CCO[C@H]2CCC[C@H]21 [Example 112, ((4aR,7aS)-Hexahydrocyclopenta[b][1,4]oxazin-4(4aH)-yl)(5-(2,4,5-trifluoro-3-hydroxyphenyl)-1,2,4-oxadiazol-3-yl)methanone] | > 50 | 32.4 | 0.39 | 7.4
5 | C[C@@H]1CN(C(=O)c2cc(-c3cc(F)c(F)c(O)c3F)on2)C[C@H](C)O1 [Example 89, ((2R,6S)-2,6-Dimethylmorpholino)(5-(2,4,5-trifluoro-3-hydroxyphenyl)isoxazol-3-yl)methanone] | > 50 | > 50 | 0.07 | 14.6
6 | CC1CN(C(=O)c2noc(-c3cc(F)c(F)c(O)c3F)n2)CC2(CCC2)O1 (racemic) [Example 123, (6-Methyl-5-oxa-8-azaspiro[3.5]nonan-8-yl)(5-(2,4,5-trifluoro-3-hydroxyphenyl)-1,2,4-oxadiazol-3-yl)methanone] | 32 | 30 | 0.08 | 8.3
7 | C[C@@H]1CN(C(=O)c2noc(-c3cc(F)c(F)c(O)c3F)n2)C[C@H](C)N1 [Example 119, ((3R,5S)-3,5-Dimethylpiperazin-1-yl)(5-(2,4,5-trifluoro-3-hydroxyphenyl)-1,2,4-oxadiazol-3-yl)methanone] | > 50 | > 50 | 2.75 | 1.0
8 | CC1(C)CN(C(=O)c2noc(-c3cc(F)c(F)c(O)c3F)n2)CC(C)(C)O1 [Example 32, (2,2,6,6-Tetramethylmorpholino)(5-(2,4,5-trifluoro-3-hydroxyphenyl)-1,2,4-oxadiazol-3-yl)methanone] | > 50 | 15.8 | 0.3 | 4.1
9 | O=C(c1noc(-c2cc(F)c(F)c(O)c2F)n1)N1CCO[C@@H]2CCC[C@H]21 [Example 114, ((4aR,7aR)-Hexahydrocyclopenta[b][1,4]oxazin-4(4aH)-yl)(5-(2,4,5-trifluoro-3-hydroxyphenyl)-1,2,4-oxadiazol-3-yl)methanone] | > 50 | 15.8 | 0.12 | 6.4
10 | O=C(c1noc(-c2ccc(F)c(O)c2)n1)N1CC[C@H](c2ccccc2)C1 [Example 11, (R)-(5-(4-Fluoro-3-hydroxyphenyl)-1,2,4-oxadiazol-3-yl)(3-phenylpyrrolidin-1-yl)methanone] | > 50 | > 50 | 0.8 | >300
11 | C[C@@H]1CN(C(=O)c2noc(-c3cc(F)c(F)c(O)c3F)n2)C[C@H](C)O1 [Example 87, ((2R,6S)-2,6-Dimethylmorpholino)(5-(2,4,5-trifluoro-3-hydroxyphenyl)-1,2,4-oxadiazol-3-yl)methanone] | > 200 | 36.3 | 0.06 | 2.7

Further lines, with some results ahead:

Row | IC50 [1] [µM] | IC50 [2] [µM] | IC50 [4] [µM] | SMILES | Assay A: Human Heps Met Clint GMean CLint (μl/min/1E6) [3] [μl/min/1E6]
12 | 30.5 | 10 | 0.03 | C[C@@H]1C[C@H](C)CN(C(=O)c2noc(-c3cc(F)c(F)c(O)c3F)n2)C1 [Example 37, ((3R,5S)-3,5-Dimethylpiperidin-1-yl)(5-(2,4,5-trifluoro-3-hydroxyphenyl)-1,2,4-oxadiazol-3-yl)methanone] | 6.7
13 | 17.2 | 15.8 | 2.52 | N#Cc1cccc2c1CCN(C(=O)c1noc(-c3c(F)c(O)c(F)c(F)c3Br)n1)C2 [Example 30, 2-(5-(2-Bromo-3,4,6-trifluoro-5-hydroxyphenyl)-1,2,4-oxadiazole-3-carbonyl)-1,2,3,4-tetrahydroisoquinoline-5-carbonitrile] | 15.6
14 | 48.7 | 21.9 | 0.11 | O=C(c1noc(-c2cc(F)c(F)c(O)c2F)n1)N1CCN(CCOc2ccc(Br)cn2)CC1 [Example 69, (4-(2-((5-Bromopyridin-2-yl)oxy)ethyl)piperazin-1-yl)(5-(2,4,5-trifluoro-3-hydroxyphenyl)-1,2,4-oxadiazol-3-yl)methanone] | 13.1
15 | 6.1 | 13 | 0.08 | COc1ccccc1C1CCN(C(=O)c2noc(-c3cc(F)c(F)c(O)c3F)n2)C1 (stereo not shown) [Example 4, (3-(2-Methoxyphenyl)pyrrolidin-1-yl)(5-(2,4,5-trifluoro-3-hydroxyphenyl)-1,2,4-oxadiazol-3-yl)methanone] | 47.4
16 | 41.8 | 38.9 | 15.8 | O=C(Nc1ccnn1C1CCCCC1)c1cc(-c2ccc(F)c(O)c2)on1 [Example 99, N-(1-Cyclohexyl-1H-pyrazol-5-yl)-5-(4-fluoro-3-hydroxyphenyl)isoxazole-3-carboxamide] | >300
17 | 44.8 | 19.6 | 0.14 | CCCC1CCN(C(=O)c2noc(-c3cc(F)c(F)c(O)c3F)n2)C1 (stereo not shown) [Example 76, (3-Propylpyrrolidin-1-yl)(5-(2,4,5-trifluoro-3-hydroxyphenyl)-1,2,4-oxadiazol-3-yl)methanone] | 18.2
18 | 41.4 | > 50 | 0.26 | N#Cc1c(C(=O)N2CCN(CCCOc3ccc(F)cc3)CC2)noc1-c1cc(F)c(F)c(O)c1F [Example 14, 3-(4-(3-(4-Fluorophenoxy)propyl)piperazine-1-carbonyl)-5-(2,4,5-trifluoro-3-hydroxyphenyl)isoxazole-4-carbonitrile] | 14.3
19 | 8.5 | > 50 | 1.21 | O=C(c1ccc(-c2cc(F)c(F)c(O)c2F)s1)N1CC[C@H](c2ccccc2)C1 [Example 33, (R)-(3-Phenylpyrrolidin-1-yl)(5-(2,4,5-trifluoro-3-hydroxyphenyl)thiophen-2-yl)methanone] | 124.3
20 | 19.3 | > 50 | 0.25 | N#Cc1cccc2c1CCN(C(=O)c1noc(-c3cc(F)c(F)c(O)c3F)n1)C2 [Example 66, 2-(5-(2,4,5-Trifluoro-3-hydroxyphenyl)-1,2,4-oxadiazole-3-carbonyl)-1,2,3,4-tetrahydroisoquinoline-5-carbonitrile] | 12.1
21 | > 50 | 16.4 | 0.02 | CC[C@H]1CN(C(=O)c2noc(-c3cc(F)c(F)c(O)c3F)n2)C[C@@H](C)O1 (racemic) [Example 121, rac-((2R,6S)-2-Ethyl-6-methylmorpholino)(5-(2,4,5-trifluoro-3-hydroxyphenyl)-1,2,4-oxadiazol-3-yl)methanone] | 6.8
22 | 39 | 18.4 | 0.24 | O=C(c1noc(-c2cc(F)c(F)c(O)c2F)n1)N1CC2CCC(C1)C2(F)F [Example 43, (8,8-difluoro-3-azabicyclo[3.2.1]octan-3-yl)(5-(2,4,5-trifluoro-3-hydroxyphenyl)-1,2,4-oxadiazol-3-yl)methanone] | 3.3
